From the supplement of paper PMC10307832

The cell lines below were run with O=C(Nc1cc(C(F)(F)F)cc(C(F)(F)F)c1)c1cc(Cl)ccc1O [IMD-0354] + CCNC(=O)c1noc(-c2cc(C(C)C)c(O)cc2O)c1-c1ccc(CN2CCOCC2)cc1 [Luminespib] (partner 0.01 µM) (assay: relative viability (nuclei count vs DMSO), 5 days (fraction); higher = more cells survive). Details: first compound 0.04 µM.
In short: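 Lung cancer cell lines were pin-tool dosed in 1536-well plates on the day after seeding, with either a lone drug or a fixed anchor-drug dose plus five library-drug doses (not always all listed) in √10 steps. Nuclei were counted on 4× images after 5 days. Relative viability is the ratio of treated-well to vehicle-well nuclei counts, with each value a median of duplicate plates.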

In order of falling relative viability:
1. EMC-BAC-2  1.28
2. LCLC-103H  1.1
3. NCI-H2009  1.09
4. NCI-H1666  1.06
5. A-427  1.06
6. NCI-H596  1.01
7. HOP-62  0.998
8. NCI-H661  0.971
9. NCI-H322M  0.94
10. COR-L 105  0.891
11. NCI-H2126  0.866
12. HARA  0.863
13. H3255  0.776
14. NCI-H2405  0.752
15. HCC-44  0.737
16. LCLC-97TM1  0.735
17. NCI-H1395  0.73
18. COR-L23  0.583
19. NCI-H2347  0.523
20. NCI-H2085  0.498
21. LOU-NH91  0.348
22. NCI-H358  0.292
23. NCI-H441  0.279
24. LU99A  0.214
25. NCI-H1734  0.201
26. NCI-H520  0.199
27. LK-2  0.195
28. SW 1573  0.189
29. BEN  0.159
30. NCI-H1793  0.149
31. NCI-H2087  0.147
32. NCI-H460  0.0305

Same assay, conditions: first compound 0.1265 µM

In order of falling relative viability:
1. EMC-BAC-2  1.13
2. HCC-44  1.1
3. NCI-H1666  1.06
4. NCI-H596  1
5. A-427  0.985
6. NCI-H661  0.946
7. NCI-H2009  0.923
8. COR-L 105  0.906
9. NCI-H322M  0.895
10. LCLC-103H  0.894
11. NCI-H2126  0.867
12. HOP-62  0.864
13. H3255  0.845
14. LCLC-97TM1  0.705
15. HARA  0.689
16. NCI-H2405  0.669
17. NCI-H1395  0.586
18. BEN  0.533
19. COR-L23  0.53
20. NCI-H2085  0.41
21. NCI-H441  0.409
22. LOU-NH91  0.334
23. NCI-H2347  0.331
24. NCI-H358  0.286
25. LU99A  0.264
26. NCI-H520  0.21
27. SW 1573  0.209
28. LK-2  0.194
29. NCI-H2087  0.183
30. NCI-H1734  0.181
31. NCI-H1793  0.159
32. NCI-H460  0.0328

Same assay, conditions: first compound 0.4 µM

In order of falling relative viability:
1. NCI-H1666  0.963
2. HCC-44  0.786
3. H3255  0.778
4. LCLC-103H  0.744
5. NCI-H1395  0.675
6. NCI-H2009  0.675
7. NCI-H2405  0.671
8. NCI-H322M  0.618
9. NCI-H2126  0.55
10. EMC-BAC-2  0.537
11. HOP-62  0.53
12. LCLC-97TM1  0.529
13. NCI-H596  0.508
14. COR-L 105  0.463
15. A-427  0.457
16. NCI-H2085  0.409
17. COR-L23  0.402
18. HARA  0.37
19. NCI-H661  0.364
20. NCI-H2347  0.356
21. LOU-NH91  0.32
22. NCI-H358  0.305
23. BEN  0.256
24. NCI-H441  0.234
25. LU99A  0.221
26. SW 1573  0.218
27. NCI-H1734  0.2
28. NCI-H520  0.198
29. LK-2  0.184
30. NCI-H2087  0.173
31. NCI-H1793  0.152
32. NCI-H460  0.0332

Same assay, conditions: first compound 1.265 µM

In order of falling relative viability:
1. EMC-BAC-2  0.651
2. HOP-62  0.509
3. NCI-H1666  0.499
4. LCLC-103H  0.432
5. NCI-H2347  0.395
6. NCI-H1395  0.362
7. NCI-H2405  0.358
8. NCI-H358  0.322
9. COR-L 105  0.317
10. NCI-H322M  0.317
11. HCC-44  0.311
12. NCI-H596  0.306
13. A-427  0.301
14. H3255  0.293
15. NCI-H2085  0.274
16. NCI-H2126  0.27
17. NCI-H661  0.254
18. LCLC-97TM1  0.251
19. NCI-H520  0.243
20. NCI-H441  0.214
21. LU99A  0.196
22. LK-2  0.195
23. LOU-NH91  0.176
24. BEN  0.161
25. HARA  0.16
26. NCI-H2009  0.148
27. NCI-H1734  0.147
28. NCI-H1793  0.143
29. SW 1573  0.138
30. NCI-H2087  0.12
31. COR-L23  0.115
32. NCI-H460  0.0223

Same assay, conditions: first compound 4 µM

In order of rising relative viability:
1. NCI-H460  0.0144
2. HARA  0.125
3. NCI-H2087  0.127
4. BEN  0.139
5. NCI-H1734  0.143
6. LCLC-97TM1  0.148
7. NCI-H2009  0.159
8. COR-L23  0.166
9. HOP-62  0.166
10. A-427  0.166
11. LK-2  0.167
12. NCI-H358  0.167
13. NCI-H441  0.2
14. LU99A  0.201
15. NCI-H2126  0.213
16. LOU-NH91  0.213
17. NCI-H661  0.217
18. LCLC-103H  0.222
19. NCI-H520  0.225
20. COR-L 105  0.236
21. HCC-44  0.239
22. NCI-H2085  0.264
23. NCI-H596  0.275
24. EMC-BAC-2  0.284
25. H3255  0.285
26. NCI-H2405  0.288
27. NCI-H1395  0.314
28. NCI-H322M  0.355
29. NCI-H1666  0.369
